Experimental data reported in PubChem BioAssay AID190 (DTP/NCI, 2004).
“And” between values parts separate entries of the source, which are not always exact repeats. Equal values may be shown once. Toxic doses and inconclusive results are not listed.

System: AKR/Lw mice, AKR lymphoma ip, median survival T/C
Experiment: NCI In Vivo Anticancer Drug Screen. Data for tumor model Lymphoma AKR (Transplanted) (intraperitoneal) in AKR/Lw mice
Settings: endpoint: median survival time, higher = longer survival
Method: The antitumor activity of compounds was measured in mice bearing transplantable tumors. Survival or tumor size were measured and the results are expressed as the measurement made in the treated group (T) divided by the measurement made in the vehicle treated control group (C). The tumor model used in this assay is Lymphoma AKR (Transplanted) (intraperitoneal) in AKR/Lw mice

[1] = dose: 100.0 mg/kg/injection, schedule: Q01DX001 (ip), vehicle: saline
[2] = dose: 200.0 mg/kg/injection, schedule: Q01DX001 (ip), vehicle: saline
[3] = dose: 400.0 mg/kg/injection, schedule: Q01DX001 (ip), vehicle: saline
[4] = dose: 25.0 mg/kg/injection, schedule: Q01DX001 (ip), vehicle: saline
[5] = dose: 50.0 mg/kg/injection, schedule: Q01DX001 (ip), vehicle: saline
[6] = dose: 100.0 mg/kg/injection, schedule: Q01DX001 (ip), vehicle: Klucel (hydroxypropylcellulose) (HPC)
[7] = dose: 200.0 mg/kg/injection, schedule: Q01DX001 (ip), vehicle: Klucel (hydroxypropylcellulose) (HPC)
[8] = dose: 400.0 mg/kg/injection, schedule: Q01DX001 (ip), vehicle: Klucel (hydroxypropylcellulose) (HPC)

For `NC(=O)NO`, the T/C (dose: 15.6 mg/kg/injection, schedule: Q06HX012 (ip), vehicle: saline) was 93 % of control, the T/C (dose: 15.6 mg/kg/injection, schedule: Q06HX016 (ip), vehicle: saline) was 96 % of control and the T/C (dose: 25.0 mg/kg/injection, schedule: Q06HX012 (ip), vehicle: saline) was 100 % of control. For the same compound, the T/C (dose: 31.25 mg/kg/injection, schedule: Q06HX012 (ip), vehicle: saline) was 96 % of control, the T/C (dose: 50.0 mg/kg/injection, schedule: Q01DX009 (ip), vehicle: saline) was 94 % of control and the T/C (dose: 50.0 mg/kg/injection, schedule: Q06HX012 (ip), vehicle: saline) was 100 % of control. The T/C (dose: 62.5 mg/kg/injection, schedule: Q06HX004 (ip), vehicle: saline) was 92 % of control and 100 % of control, the T/C (dose: 62.5 mg/kg/injection, schedule: Q06HX008 (ip), vehicle: saline) was 93 % of control and the T/C (dose: 62.5 mg/kg/injection, schedule: Q06HX012 (ip), vehicle: saline) was 93 % of control. For the same compound, the T/C (dose: 62.5 mg/kg/injection, schedule: Q06HX016 (ip), vehicle: saline) was 100 % of control, the T/C (dose: 75.0 mg/kg/injection, schedule: Q06HX012 (ip), vehicle: saline) was 96 % of control and the T/C (dose: 100.0 mg/kg/injection, schedule: Q06HX008 (ip), vehicle: saline) was 92 % of control. The T/C (dose: 100.0 mg/kg/injection, schedule: Q06HX012 (ip), vehicle: saline) was 88 % of control.
In the case of `CC(C)(CNc1ccc(C(=O)O)cc1)[N+](=O)[O-]`, the T/C [1] is reported as 102 % of control, the T/C [2] is reported as 95 % of control and the T/C [3] is reported as 86 % of control.
With `COC(=O)c1ccc(NCC(C)(C)N)cc1` the T/C (dose: 12.5 mg/kg/injection, schedule: Q01DX001 (ip), vehicle: saline) was 100 % of control, the T/C [4] was 94 % of control and the T/C [5] was 88 % of control.
`O=C(/C=C/C(=O)Oc1ccc(Cl)cc1)Oc1ccc(Cl)cc1` was tested, and the T/C [6] was 92 % of control, the T/C [7] was 89 % of control and the T/C [8] was 107 % of control.
`OCC1=C(CO)C2(Cl)C(Cl)=C(Cl)C1(Cl)C2(Cl)Cl` was tested, and the T/C [7] was 95 % of control and the T/C [8] was 91 % of control.
With `NC(=S)N/N=C/c1ccccn1` the T/C (dose: 0.12 mg/kg/injection, schedule: Q03HX032 (ip), vehicle: saline with Tween-80) was 122 % of control, the T/C (dose: 0.25 mg/kg/injection, schedule: Q03HX032 (ip), vehicle: saline with Tween-80) was 113 % of control and the T/C (dose: 0.5 mg/kg/injection, schedule: Q03HX032 (ip), vehicle: saline with Tween-80) was 122 % of control. For the same compound, the T/C (dose: 1.0 mg/kg/injection, schedule: Q03HX032 (ip), vehicle: saline with Tween-80) was 114 % of control, the T/C (dose: 1.25 mg/kg/injection, schedule: Q01DX009 (ip), vehicle: saline with Tween-80) was 96 % of control and the T/C (dose: 2.0 mg/kg/injection, schedule: Q04DX003 (ip), vehicle: saline with Tween-80) was 103 % of control. The T/C (dose: 3.5 mg/kg/injection, schedule: Q04DX003 (ip), vehicle: saline with Tween-80) was 96 % of control, the T/C (dose: 4.0 mg/kg/injection, schedule: Q04DX003 (ip), vehicle: saline with Tween-80) was 116 % of control and the T/C (dose: 5.0 mg/kg/injection, schedule: Q01DX009 (ip), vehicle: saline with Tween-80) was 94 % of control. For the same compound, the T/C (dose: 5.3 mg/kg/injection, schedule: Q04DX003 (ip), vehicle: saline with Tween-80) was 106 % of control, the T/C (dose: 8.0 mg/kg/injection, schedule: Q04DX003 (ip), vehicle: saline with Tween-80) was 109 % of control and the T/C (dose: 13.0 mg/kg/injection, schedule: Q04DX003 (ip), vehicle: saline with Tween-80) was 112 % of control.
`c1ccc2c(c1)CNCc1ccccc1-2` was tested, and the T/C [1] was 97 % of control.
For `N#CCCNc1ccc(NC(=O)C(F)(F)F)cc1`, the T/C (dose: 25.0 mg/kg/injection, schedule: Q01DX009 (ip), vehicle: Klucel (hydroxypropylcellulose) (HPC)) was 96 % of control, the T/C (dose: 50.0 mg/kg/injection, schedule: Q01DX009 (ip), vehicle: Klucel (hydroxypropylcellulose) (HPC)) was 89 % of control and the T/C (dose: 50.0 mg/kg/injection, schedule: Q04DX003 (ip), vehicle: other) was 90 % of control. For the same compound, the T/C [1] was 103 % of control, the T/C (dose: 100.0 mg/kg/injection, schedule: Q04DX003 (ip), vehicle: other) was 95 % of control and the T/C [2] was 100 % of control. The T/C (dose: 200.0 mg/kg/injection, schedule: Q04DX003 (ip), vehicle: other) was 95 % of control.
With `CC(C)(C)/[N+]([O-])=[N+](\[O-])C(C)(C)C` (tested in a mixture with another compound) the T/C [6] was 95 % of control, the T/C [7] was 97 % of control and the T/C [8] was 100 % of control.
`CN(CCOc1ccccc1O)CCOc1ccccc1O` was tested, and the T/C [6] was 105 % of control, the T/C (dose: 100.0 mg/kg/injection, schedule: Q04DX003 (ip), vehicle: Klucel (hydroxypropylcellulose) (HPC)) was 100 % of control and the T/C [7] was 107 % of control. The T/C (dose: 200.0 mg/kg/injection, schedule: Q04DX003 (ip), vehicle: Klucel (hydroxypropylcellulose) (HPC)) was 92 % of control and the T/C [8] was 105 % of control.
With `CC(=O)C1CCC2C3CCC4CC(O)CCC4(C)C3CCC12C#N` (stereo not given) the T/C (dose: 100.0 mg/kg/injection, schedule: Q01DX001 (sc), vehicle: steriod suspending solution) was 104 % of control, the T/C (dose: 200.0 mg/kg/injection, schedule: Q01DX001 (sc), vehicle: steriod suspending solution) was 106 % of control and the T/C (dose: 400.0 mg/kg/injection, schedule: Q01DX001 (sc), vehicle: steriod suspending solution) was 95 % of control.
With `c1ccc(C[N+](Cc2ccccc2)=C2CCCCC2)cc1` the T/C [1] was 111 % of control and the T/C [2] was 114 % of control.
With `COc1cc(N)c2ncccc2c1SC` the T/C [2] was 102 % of control and the T/C [3] was 106 % of control.
With `CC(=O)c1ccc2ccccc2c1O` the T/C (dose: 25.0 mg/kg/injection, schedule: Q01DX001 (ip), vehicle: Klucel (hydroxypropylcellulose) (HPC)) was 102 % of control, the T/C (dose: 50.0 mg/kg/injection, schedule: Q01DX001 (ip), vehicle: Klucel (hydroxypropylcellulose) (HPC)) was 88 % of control and the T/C [7] was 88 % of control. The T/C (dose: 200.0 mg/kg/injection, schedule: Q01DX001 (ip), vehicle: other) was 104 % of control and the T/C (dose: 400.0 mg/kg/injection, schedule: Q01DX001 (ip), vehicle: other) was 111 % of control.
`S=C1SCN(Cc2ccccc2)CN1Cc1ccccc1` was tested, and the T/C [1] was 111 % of control, the T/C [2] was 91 % of control and the T/C [3] was 91 % of control.
`COc1ccc(NC(=S)Nc2ccccn2)cc1` was tested, and the T/C [6] was 100 % of control.
`c1ccc2c(c1)CNC2` was tested, and the T/C [1] was 97 % of control, the T/C [2] was 123 % of control and the T/C [3] was 111 % of control.
For `CC(CN1CC(=O)NC(=O)C1)N1CC(=O)NC(=O)C1` (stereo not given), the T/C (dose: 0.5 mg/kg/injection, schedule: Q01DX009 (ip), vehicle: saline) was 103 % of control, the T/C (dose: 1.6 mg/kg/injection, schedule: Q01DX009 (ip), vehicle: saline) was 116 % of control and the T/C (dose: 2.0 mg/kg/injection, schedule: Q01DX009 (ip), vehicle: saline) was 109 % of control. For the same compound, the T/C (dose: 2.5 mg/kg/injection, schedule: Q01DX009 (ip), vehicle: saline) was 90 % of control, the T/C (dose: 3.1 mg/kg/injection, schedule: Q01DX009 (ip), vehicle: saline) was 110 % of control and 113 % of control and the T/C (dose: 4.0 mg/kg/injection, schedule: Q01DX009 (ip), vehicle: saline) was 181 % of control. The T/C (dose: 5.0 mg/kg/injection, schedule: Q01DX009 (ip), vehicle: saline) was 106 % of control, the T/C (dose: 10.0 mg/kg/injection, schedule: Q01DX009 (ip), vehicle: saline) was 120 % of control and the T/C (dose: 12.5 mg/kg/injection, schedule: Q04DX003 (ip), vehicle: saline) was 88 % of control and 90 % of control. The T/C (dose: 20.0 mg/kg/injection, schedule: Q01DX009 (ip), vehicle: saline) was 150 % of control, the T/C [4] was 94 % of control and the T/C (dose: 25.0 mg/kg/injection, schedule: Q04DX003 (ip), vehicle: saline) was 105 % of control and 107 % of control. The T/C (dose: 30.0 mg/kg/injection, schedule: Q01DX009 (ip), vehicle: saline) was 152 % of control, the T/C (dose: 35.0 mg/kg/injection, schedule: Q01DX009 (ip), vehicle: saline) was 152 % of control and the T/C [5] was 97 % of control and 106 % of control. The T/C (dose: 50.0 mg/kg/injection, schedule: Q04DX003 (ip), vehicle: saline) was 92 % of control and 100 % of control, the T/C (dose: 75.0 mg/kg/injection, schedule: Q04DX003 (ip), vehicle: saline) was 94 % of control and the T/C (dose: 150.0 mg/kg/injection, schedule: Q01DX001 (ip), vehicle: water) was 108 % of control. For the same compound, the T/C (dose: 150.0 mg/kg/injection, schedule: Q04DX003 (ip), vehicle: saline) was 123 % of control, the T/C (dose: 200.0 mg/kg/injection, schedule: Q01DX009 (ip), vehicle: saline) was 108 % of control and the T/C (dose: 300.0 mg/kg/injection, schedule: Q01DX009 (ip), vehicle: saline) was 106 % of control. The T/C (dose: 300.0 mg/kg/injection, schedule: Q04DX003 (ip), vehicle: saline) was 100 % of control, the T/C (dose: 400.0 mg/kg/injection, schedule: Q01DX009 (ip), vehicle: saline) was 100 % of control and the T/C (dose: 600.0 mg/kg/injection, schedule: Q01DX001 (ip), vehicle: water) was 111 % of control.
